Assay results as given in ChEMBL document CHEMBL1201862, “PubChem BioAssay data set” (2004).
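Briefly, cells in 96-well plates were exposed to five compound concentrations for 48 h, and endpoints were estimated by linear interpolation. At the GI50, growth is halved.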 Calls of active or inactive are those of the source. Rule as the data show it: active = GI50 up to about 1.1 µM and inactive = higher.

How the values were obtained:
Experiment in all cases: DTP human tumour cell line panel, 48 h
DU-145 = test system: DU-145
HL-60 = test system: HL-60
HOP-92 = test system: HOP-92
Hs-578T = test system: Hs-578T
LOX IMVI = test system: LOX IMVI
MCF7 = test system: MCF7
MDA-MB-231 = test system: MDA-MB-231
MDA-MB-435 = test system: MDA-MB-435
MDA-N = test system: MDA-N
NCI/ADR-RES = test system: NCI/ADR-RES
PC-3 = test system: PC-3
T47D = test system: T47D
786-0 = test system: 786-0
A498 = test system: A498
A549 = test system: A549
ACHN = test system: ACHN
CAKI-1 = test system: CAKI-1
CCRF-CEM = test system: CCRF-CEM
COLO 205 = test system: COLO 205
EKVX = test system: EKVX
HCC 2998 = test system: HCC 2998
HCT-116 = test system: HCT-116
HOP-62 = test system: HOP-62
HT-29 = test system: HT-29
IGROV-1 = test system: IGROV-1
K562 = test system: K562
KM12 = test system: KM12
M14 = test system: M14
MOLT-4 = test system: MOLT-4
Malme-3M = test system: Malme-3M
NCI-H23 = test system: NCI-H23
NCI-H460 = test system: NCI-H460
OVCAR-4 = test system: OVCAR-4
OVCAR-5 = test system: OVCAR-5
OVCAR-8 = test system: OVCAR-8
RPMI-8226 = test system: RPMI-8226
RXF 393 = test system: RXF 393
SF-268 = test system: SF-268
SF-295 = test system: SF-295
SK-MEL-28 = test system: SK-MEL-28
SK-MEL-5 = test system: SK-MEL-5
SK-OV-3 = test system: SK-OV-3
SNB-19 = test system: SNB-19
SNB-75 = test system: SNB-75
SR = test system: SR
SW-620 = test system: SW-620
TK-10 = test system: TK-10
U-251 = test system: U-251
UACC-257 = test system: UACC-257
UO-31 = test system: UO-31
HCT-15 = test system: HCT-15
NCI-H226 = test system: NCI-H226
OVCAR-3 = test system: OVCAR-3
SN12C = test system: SN12C
UACC-62 = test system: UACC-62
SF-539 = test system: SF-539
SK-MEL-2 = test system: SK-MEL-2

## C/C=C/C=C/c1cc2cc3c(c(O)c2c(=O)[nH]1)C1(CC3)C(=O)c2c(O)c3c(c(O)c2C1=O)C(=O)C(OC)=CC3=O (stereo not given)
DU-145
  GI50: 0.378 µM (active)
HL-60
  GI50: < 0.01 µM (active)
HOP-92
  GI50: 0.0328 µM (active)
Hs-578T
  GI50: 0.132 µM (active)
LOX IMVI
  GI50: 0.0205 µM (active)
MCF7
  GI50: 0.0681 µM (active)
MDA-MB-231
  GI50: 0.203 µM (active)
MDA-MB-435
  GI50: 0.303 µM (active)
MDA-N
  GI50: 0.267 µM (active)
NCI/ADR-RES
  GI50: 0.283 µM (active)
PC-3
  GI50: 0.0573 µM (active)
T47D
  GI50: < 0.01 µM (active)

## Cc1cc2c(=O)c3ccccc3oc2c(C#N)c1C
786-0
  GI50: > 100 µM (inactive)
A498
  GI50: > 100 µM (inactive)
A549
  GI50: > 100 µM (inactive)
ACHN
  GI50: > 100 µM (inactive)
CAKI-1
  GI50: > 100 µM (inactive)
CCRF-CEM
  GI50: > 100 µM (inactive)
COLO 205
  GI50: > 100 µM (inactive)
DU-145
  GI50: > 100 µM (inactive)
EKVX
  GI50: > 100 µM (inactive)
HCC 2998
  GI50: > 100 µM (inactive)
HCT-116
  GI50: > 100 µM (inactive)
HL-60
  GI50: > 100 µM (inactive)
HOP-62
  GI50: > 100 µM (inactive)
HOP-92
  GI50: > 100 µM (inactive)
HT-29
  GI50: 43.6 µM (inactive)
Hs-578T
  GI50: > 100 µM (inactive)
IGROV-1
  GI50: > 100 µM (inactive)
K562
  GI50: > 100 µM (inactive)
KM12
  GI50: > 100 µM (inactive)
M14
  GI50: > 100 µM (inactive)
MCF7
  GI50: > 100 µM (inactive)
MDA-N
  GI50: > 100 µM (inactive)
MOLT-4
  GI50: > 100 µM (inactive)
Malme-3M
  GI50: > 100 µM (inactive)
NCI-H23
  GI50: > 100 µM (inactive)
NCI-H460
  GI50: > 100 µM (inactive)
NCI/ADR-RES
  GI50: > 100 µM (inactive)
OVCAR-4
  GI50: > 100 µM (inactive)
OVCAR-5
  GI50: > 100 µM (inactive)
OVCAR-8
  GI50: > 100 µM (inactive)
PC-3
  GI50: 40.3 µM (inactive)
RPMI-8226
  GI50: > 100 µM (inactive)
RXF 393
  GI50: > 100 µM (inactive)
SF-268
  GI50: > 100 µM (inactive)
SF-295
  GI50: > 100 µM (inactive)
SK-MEL-28
  GI50: > 100 µM (inactive)
SK-MEL-5
  GI50: > 100 µM (inactive)
SK-OV-3
  GI50: > 100 µM (inactive)
SNB-19
  GI50: > 100 µM (inactive)
SNB-75
  GI50: > 100 µM (inactive)
SR
  GI50: > 100 µM (inactive)
SW-620
  GI50: > 100 µM (inactive)
T47D
  GI50: > 100 µM (inactive)
TK-10
  GI50: > 100 µM (inactive)
U-251
  GI50: > 100 µM (inactive)
UACC-257
  GI50: > 100 µM (inactive)
UO-31
  GI50: > 100 µM (inactive)

## COc1ccc2c(ccc3c(C(=O)NCCN(C)CCNC(=O)c4cn(C)c5c4ccc4cc(OC)ccc45)cn(C)c32)c1
786-0
  GI50: 1.53 µM (inactive)
A498
  GI50: 20 µM (inactive)
A549
  GI50: 1.79 µM (inactive)
ACHN
  GI50: 1.72 µM (inactive)
CAKI-1
  GI50: 1.62 µM (inactive)
COLO 205
  GI50: 2.01 µM (inactive)
DU-145
  GI50: 1.73 µM (inactive)
EKVX
  GI50: 1.3 µM (inactive)
HCC 2998
  GI50: 1.47 µM (inactive)
HCT-116
  GI50: 1.79 µM (inactive)
HCT-15
  GI50: 1.26 µM
HOP-62
  GI50: 1.44 µM (inactive)
HOP-92
  GI50: 2.61 µM (inactive)
HT-29
  GI50: 1.4 µM (inactive)
Hs-578T
  GI50: 1.95 µM (inactive)
IGROV-1
  GI50: 1.02 µM (active)
KM12
  GI50: 1.66 µM (inactive)
LOX IMVI
  GI50: 2.15 µM (inactive)
M14
  GI50: 1.64 µM (inactive)
MDA-MB-435
  GI50: 2.38 µM (inactive)
MDA-N
  GI50: 1.57 µM (inactive)
NCI-H226
  GI50: 0.628 µM (active)
NCI-H23
  GI50: 1.32 µM (inactive)
NCI-H460
  GI50: 1.45 µM (inactive)
NCI/ADR-RES
  GI50: 1.42 µM (inactive)
OVCAR-3
  GI50: 1.51 µM (inactive)
OVCAR-4
  GI50: 1.56 µM (inactive)
PC-3
  GI50: 1.51 µM (inactive)
RXF 393
  GI50: 1.4 µM (inactive)
SF-268
  GI50: 1.95 µM (inactive)
SF-295
  GI50: 1.85 µM (inactive)
SK-MEL-28
  GI50: 1.79 µM (inactive)
SK-MEL-5
  GI50: 1.63 µM (inactive)
SN12C
  GI50: 1.49 µM (inactive)
SNB-19
  GI50: 1.95 µM (inactive)
SW-620
  GI50: 2.18 µM (inactive)
U-251
  GI50: 3.16 µM (inactive)
UACC-257
  GI50: 1.58 µM (inactive)
UACC-62
  GI50: 1.84 µM (inactive)
UO-31
  GI50: 1.45 µM (inactive)

## O=c1ccn([C@@H]2O[C@H](CO)[C@@H](O)[C@H]2F)c(=O)[nH]1
A498
  GI50: > 100 µM (inactive)
A549
  GI50: > 100 µM (inactive)
ACHN
  GI50: > 100 µM (inactive)
COLO 205
  GI50: > 100 µM (inactive)
DU-145
  GI50: > 100 µM (inactive)
HCC 2998
  GI50: > 100 µM (inactive)
HCT-116
  GI50: > 99.8 µM (inactive)
HCT-15
  GI50: > 99.5 µM
HOP-62
  GI50: > 100 µM (inactive)
HT-29
  GI50: > 100 µM (inactive)
Hs-578T
  GI50: > 100 µM (inactive)
IGROV-1
  GI50: > 100 µM (inactive)
M14
  GI50: > 100 µM (inactive)
MDA-MB-231
  GI50: > 100 µM (inactive)
MDA-MB-435
  GI50: > 100 µM (inactive)
MDA-N
  GI50: > 100 µM (inactive)
NCI-H226
  GI50: > 100 µM (inactive)
NCI-H23
  GI50: > 100 µM (inactive)
NCI-H460
  GI50: 88.7 µM (inactive)
NCI/ADR-RES
  GI50: > 100 µM (inactive)
OVCAR-4
  GI50: > 100 µM (inactive)
OVCAR-5
  GI50: > 100 µM (inactive)
OVCAR-8
  GI50: > 100 µM (inactive)
SF-268
  GI50: > 100 µM (inactive)
SF-295
  GI50: > 100 µM (inactive)
SF-539
  GI50: > 100 µM (inactive)
SK-MEL-28
  GI50: > 100 µM (inactive)
SK-MEL-2
  GI50: > 100 µM (inactive)
SK-OV-3
  GI50: > 100 µM (inactive)
SN12C
  GI50: > 100 µM (inactive)
SNB-19
  GI50: > 100 µM (inactive)
SNB-75
  GI50: > 100 µM (inactive)
TK-10
  GI50: > 100 µM (inactive)
U-251
  GI50: 95.1 µM (inactive)
UACC-257
  GI50: > 100 µM (inactive)
UO-31
  GI50: > 100 µM (inactive)
